From PubChem BioAssay AID328 (DTP/NCI, 2004)
Several values for one entry are separate records, joined by “and”; a condition that tells them apart may be missing. Identical values can stand only once. Inconclusive results and toxic doses are left out.

Tested on: BDF1 mice, P388 leukemia ip, median survival T/C
Assay: NCI In Vivo Anticancer Drug Screen. Data for tumor model P388 Leukemia (intraperitoneal) in B6D2F1 (BDF1) mice
Settings: endpoint: median survival time, higher = longer survival
In short: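 Read-out is survival of treated animals expressed relative to the vehicle group, as a T/C ratio.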

With `Cc1ccccc1C(O)c1ccccc1Cl` (centres undefined) the T/C (dose: 100.0 mg/kg/injection, schedule: Q01DX001 (ip), vehicle: saline sonified) was 100 % of control, the T/C (dose: 200.0 mg/kg/injection, schedule: Q01DX001 (ip), vehicle: saline sonified) was 100 % of control and the T/C (dose: 400.0 mg/kg/injection, schedule: Q01DX001 (ip), vehicle: saline sonified) was 100 % of control.

`CCC(=O)N(c1ccccc1)c1ccccc1` was tested, and the T/C (dose: 75.0 mg/kg/injection, schedule: Q01DX009 (ip), vehicle: saline with Tween-80) was 99 % of control, the T/C (dose: 150.0 mg/kg/injection, schedule: Q01DX009 (ip), vehicle: saline with Tween-80) was 100 % of control and the T/C (dose: 300.0 mg/kg/injection, schedule: Q01DX009 (ip), vehicle: saline with Tween-80) was 108 % of control.

In the case of `CCC1(O)CC2CN(CCc3c([nH]c4ccccc34)C(C(=O)OC)(c3cc4c(cc3OC)N(C)C3C(O)(C(N)=O)C(O)C5(CC)C=CCN6CCC43C65)C2)C1` (centres undefined) (tested in a mixture with another compound), the T/C (dose: 0.65 mg/kg/injection, schedule: Q04DX003 (ip), vehicle: saline) is reported as 188 % of control, the T/C (dose: 0.87 mg/kg/injection, schedule: Q04DX003 (ip), vehicle: saline) is reported as 154 % of control and the T/C (dose: 1.08 mg/kg/injection, schedule: Q04DX003 (ip), vehicle: saline) is reported as 223 % of control. For the same compound, the T/C (dose: 1.3 mg/kg/injection, schedule: Q04DX003 (ip), vehicle: saline) was 187 % of control, the T/C (dose: 1.8 mg/kg/injection, schedule: Q04DX003 (ip), vehicle: saline) was 238 % of control and the T/C (dose: 2.0 mg/kg/injection, schedule: Q04DX003 (ip), vehicle: saline) was 163 % of control. The T/C (dose: 3.0 mg/kg/injection, schedule: Q04DX003 (ip), vehicle: saline) was 101 % of control, the T/C (dose: 500.0 micrograms/kg/injection, schedule: Q04DX003 (ip), vehicle: saline) was 175 % of control and the T/C (dose: 648.0 micrograms/kg/injection, schedule: Q04DX003 (ip), vehicle: saline) was 203 % of control. The T/C (dose: 1000.0 micrograms/kg/injection, schedule: Q04DX003 (ip), vehicle: saline) was 250 % of control, the T/C (dose: 1080.0 micrograms/kg/injection, schedule: Q04DX003 (ip), vehicle: saline) was 237 % of control and the T/C (dose: 1800.0 micrograms/kg/injection, schedule: Q04DX003 (ip), vehicle: saline) was 237 % of control. The T/C (dose: 2000.0 micrograms/kg/injection, schedule: Q04DX003 (ip), vehicle: saline) was 211 % of control and the T/C (dose: 4000.0 micrograms/kg/injection, schedule: Q04DX003 (ip), vehicle: saline) was 96 % of control.

For `CCCCCCCCCCCCCCCCCSCCCCCSCCCCCCCCCCCCCCCCC`, the T/C (dose: 100.0 mg/kg/injection, schedule: Q01DX001 (ip), vehicle: saline with Tween-80) was 90 % of control and the T/C (dose: 400.0 mg/kg/injection, schedule: Q01DX001 (ip), vehicle: saline with Tween-80) was 86 % of control.

In the case of `O=c1oc2c(CN3CCCC3)c(O)ccc2c2c1CCCC2`, the T/C (dose: 1.0 mg/kg/injection, schedule: Q01DX009 (ip), vehicle: Klucel (hydroxypropylcellulose) (HPC)) is reported as 98 % of control, the T/C (dose: 2.0 mg/kg/injection, schedule: Q01DX009 (ip), vehicle: Klucel (hydroxypropylcellulose) (HPC)) is reported as 109 % of control and the T/C (dose: 4.0 mg/kg/injection, schedule: Q01DX009 (ip), vehicle: Klucel (hydroxypropylcellulose) (HPC)) is reported as 104 % of control. The T/C (dose: 8.0 mg/kg/injection, schedule: Q01DX009 (ip), vehicle: Klucel (hydroxypropylcellulose) (HPC)) was 109 % of control, the T/C (dose: 16.0 mg/kg/injection, schedule: Q01DX009 (ip), vehicle: Klucel (hydroxypropylcellulose) (HPC)) was 98 % of control and the T/C (dose: 32.0 mg/kg/injection, schedule: Q01DX009 (ip), vehicle: Klucel (hydroxypropylcellulose) (HPC)) was 99 % of control.

With `C[C@@H]1C[C@@]2(C)C(=CC1=O)CC[C@@H]1C2=CC[C@@]2(C)[C@H]1CC[C@]2(C)O` the T/C (dose: 100.0 mg/kg/injection, schedule: Q01DX009 (ip), vehicle: Klucel (hydroxypropylcellulose) (HPC)) was 100 % of control and 110 % of control, the T/C (dose: 100.0 mg/kg/injection, schedule: Q04DX003 (ip), vehicle: alcohol) was 100 % of control and the T/C (dose: 200.0 mg/kg/injection, schedule: Q01DX009 (ip), vehicle: Klucel (hydroxypropylcellulose) (HPC)) was 90 % of control and 100 % of control. The T/C (dose: 200.0 mg/kg/injection, schedule: Q04DX003 (ip), vehicle: alcohol) was 105 % of control, the T/C (dose: 400.0 mg/kg/injection, schedule: Q01DX009 (ip), vehicle: Klucel (hydroxypropylcellulose) (HPC)) was 90 % of control and 113 % of control and the T/C (dose: 400.0 mg/kg/injection, schedule: Q04DX003 (ip), vehicle: alcohol) was 95 % of control.

`CC12CCOC(=O)/C=C/C=C/C(=O)OC3CC4OC5C6OC6(C)CCC5(COC(=O)C1O2)C3(C)C41CO1` (centres undefined) was tested, and the T/C (dose: 2.5 mg/kg/injection, schedule: Q01DX009 (ip), vehicle: saline + alcohol) was 154 % of control and the T/C (dose: 10.0 mg/kg/injection, schedule: Q01DX009 (ip), vehicle: saline + alcohol) was 157 % of control.

For `CC1=NNC(=O)/C1=C\c1ccccc1`, the T/C (dose: 25.0 mg/kg/injection, schedule: Q01DX009 (ip), vehicle: saline with Tween-80) was 103 % of control, the T/C (dose: 50.0 mg/kg/injection, schedule: Q01DX009 (ip), vehicle: saline with Tween-80) was 99 % of control and the T/C (dose: 100.0 mg/kg/injection, schedule: Q01DX009 (ip), vehicle: saline with Tween-80) was 108 % of control.
